According to US20070276025A1, “Indirubin-Type Compounds, Compositions, and Methods for Their Use” (priority 2003, published 2007):
Where two headings read alike, the source gives them in different places.

Experiments:
[1] = target: CDK1/cyclin B; assay: CDK1/cyclin B kinase assay (histone H1, 15 μM ATP); assay type: biochemical, starfish (Marthasterias glacialis)
[2] = target: T1, AhR (Homo sapiens, UniProt P35869); assay: Yeast AhR reporter assay (β-galactosidase); conditions: read-out: EC50 AhR (yeast); Table 4; * = inactive at the indicated highest concentration tested
T1 sequence (P35869 11-848): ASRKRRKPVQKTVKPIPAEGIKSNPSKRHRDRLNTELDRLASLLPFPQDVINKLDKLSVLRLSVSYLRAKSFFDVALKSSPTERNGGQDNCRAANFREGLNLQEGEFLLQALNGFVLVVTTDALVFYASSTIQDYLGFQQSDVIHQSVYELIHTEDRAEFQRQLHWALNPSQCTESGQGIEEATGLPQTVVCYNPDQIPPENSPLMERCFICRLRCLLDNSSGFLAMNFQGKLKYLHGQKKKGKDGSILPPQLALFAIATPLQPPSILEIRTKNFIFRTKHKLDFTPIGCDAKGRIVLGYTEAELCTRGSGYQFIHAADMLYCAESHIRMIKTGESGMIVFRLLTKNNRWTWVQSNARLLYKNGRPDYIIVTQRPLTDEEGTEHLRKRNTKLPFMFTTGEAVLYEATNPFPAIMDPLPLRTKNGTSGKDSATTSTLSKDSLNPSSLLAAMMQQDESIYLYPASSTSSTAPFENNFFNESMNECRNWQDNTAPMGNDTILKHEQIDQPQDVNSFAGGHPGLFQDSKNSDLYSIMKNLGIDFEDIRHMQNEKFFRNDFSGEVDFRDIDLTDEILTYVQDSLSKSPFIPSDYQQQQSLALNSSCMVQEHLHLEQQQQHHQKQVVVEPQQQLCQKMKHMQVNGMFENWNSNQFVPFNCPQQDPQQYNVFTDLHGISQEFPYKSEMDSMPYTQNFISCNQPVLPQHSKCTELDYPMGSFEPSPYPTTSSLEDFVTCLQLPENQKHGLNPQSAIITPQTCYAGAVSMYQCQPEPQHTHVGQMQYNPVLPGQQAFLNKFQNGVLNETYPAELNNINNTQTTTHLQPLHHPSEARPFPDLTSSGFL
T1 sequence (P27540 whole entry partner): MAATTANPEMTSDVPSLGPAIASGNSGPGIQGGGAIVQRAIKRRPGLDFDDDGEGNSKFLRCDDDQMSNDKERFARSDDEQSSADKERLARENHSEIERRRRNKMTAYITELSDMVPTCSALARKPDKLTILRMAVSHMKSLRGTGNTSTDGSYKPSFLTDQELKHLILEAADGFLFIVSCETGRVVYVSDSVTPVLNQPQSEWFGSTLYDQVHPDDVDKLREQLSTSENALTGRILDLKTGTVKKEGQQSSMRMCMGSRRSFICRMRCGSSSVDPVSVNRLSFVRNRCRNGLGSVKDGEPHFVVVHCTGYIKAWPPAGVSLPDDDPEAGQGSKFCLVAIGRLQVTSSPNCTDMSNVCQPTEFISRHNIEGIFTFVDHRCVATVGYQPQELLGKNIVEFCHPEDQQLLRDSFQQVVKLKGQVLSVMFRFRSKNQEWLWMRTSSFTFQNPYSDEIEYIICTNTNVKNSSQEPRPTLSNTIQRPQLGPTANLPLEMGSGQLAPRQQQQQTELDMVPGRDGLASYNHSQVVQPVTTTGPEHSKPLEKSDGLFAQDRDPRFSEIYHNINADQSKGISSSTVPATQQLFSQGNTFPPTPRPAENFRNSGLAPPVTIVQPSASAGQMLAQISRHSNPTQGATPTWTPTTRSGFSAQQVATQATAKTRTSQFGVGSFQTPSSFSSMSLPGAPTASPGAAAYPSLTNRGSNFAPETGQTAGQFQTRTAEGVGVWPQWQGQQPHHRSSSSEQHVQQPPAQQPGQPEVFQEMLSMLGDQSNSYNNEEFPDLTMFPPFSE

[3] = target: CDK5/p25 (Homo sapiens, UniProt Q00535); assay: CDK5/p25 kinase assay (histone H1, 15 μM ATP); assay type: biochemical, mammalian
CDK5/p25, sequence (Q00535 whole entry, species assumed): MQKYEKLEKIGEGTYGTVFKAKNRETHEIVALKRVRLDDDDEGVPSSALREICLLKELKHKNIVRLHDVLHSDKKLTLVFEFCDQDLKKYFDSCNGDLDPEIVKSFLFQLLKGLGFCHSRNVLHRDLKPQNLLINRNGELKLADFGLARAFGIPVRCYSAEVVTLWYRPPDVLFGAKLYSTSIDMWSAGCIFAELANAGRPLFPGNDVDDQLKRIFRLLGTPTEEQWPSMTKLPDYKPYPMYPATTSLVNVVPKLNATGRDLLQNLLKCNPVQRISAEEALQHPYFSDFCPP
CDK5/p25, sequence (Q15078 99-307 partner limits assumed, species assumed): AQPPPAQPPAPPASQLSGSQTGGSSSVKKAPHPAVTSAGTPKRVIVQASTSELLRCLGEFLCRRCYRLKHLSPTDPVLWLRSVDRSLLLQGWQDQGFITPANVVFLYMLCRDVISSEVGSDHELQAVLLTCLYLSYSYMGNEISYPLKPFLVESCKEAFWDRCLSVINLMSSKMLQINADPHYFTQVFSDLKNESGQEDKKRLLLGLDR

[4] = target: T2, AhR (Mus musculus, UniProt P30561); conditions: read-out: EC50 AhR (hepatoma cell line); Table 4; EGFP at 24 hours
T2 sequence (P30561 1-848): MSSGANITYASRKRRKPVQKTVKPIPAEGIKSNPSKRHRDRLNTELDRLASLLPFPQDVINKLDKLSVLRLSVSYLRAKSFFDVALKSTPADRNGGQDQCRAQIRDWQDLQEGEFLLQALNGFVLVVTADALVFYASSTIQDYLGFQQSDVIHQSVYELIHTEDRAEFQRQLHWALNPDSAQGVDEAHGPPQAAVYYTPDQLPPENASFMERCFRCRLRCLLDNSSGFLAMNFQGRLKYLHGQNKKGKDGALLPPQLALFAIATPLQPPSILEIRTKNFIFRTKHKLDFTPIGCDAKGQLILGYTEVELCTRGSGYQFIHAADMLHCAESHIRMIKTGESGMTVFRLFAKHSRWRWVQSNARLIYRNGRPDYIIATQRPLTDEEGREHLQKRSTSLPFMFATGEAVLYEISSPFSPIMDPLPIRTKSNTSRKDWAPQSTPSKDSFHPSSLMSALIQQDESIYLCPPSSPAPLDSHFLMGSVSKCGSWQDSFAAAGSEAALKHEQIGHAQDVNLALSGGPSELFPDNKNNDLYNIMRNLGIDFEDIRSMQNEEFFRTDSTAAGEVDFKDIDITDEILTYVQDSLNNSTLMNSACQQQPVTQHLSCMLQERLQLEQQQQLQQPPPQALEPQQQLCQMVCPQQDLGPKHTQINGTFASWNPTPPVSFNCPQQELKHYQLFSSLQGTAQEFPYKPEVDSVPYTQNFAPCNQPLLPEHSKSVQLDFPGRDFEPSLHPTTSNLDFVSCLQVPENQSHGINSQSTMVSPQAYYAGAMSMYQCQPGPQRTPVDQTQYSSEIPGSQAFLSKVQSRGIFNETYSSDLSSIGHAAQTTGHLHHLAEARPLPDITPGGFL

[5] = target: GSK-3α/β; assay: GSK-3α/β kinase assay (GS-1 peptide, 15 μM ATP); assay type: biochemical, porcine
[6] = target: T1, AhR
[7] = Table 4, read-out: IC50 CDK1/cycin B
[8] = Table 5, read-out: IC50 CDK1/cyclin B
[9] = Table 5, read-out: IC50 CDK5/p25
[10] = Table 7, GSK-3, read-out: IC50exp
[11] = Table 1, read-out: IC50 CDK5/p25
[12] = Table 5, read-out: IC50 GSK-3α/β
[13] = Table 1, read-out: IC50 CDK1/cyclin B
[14] = Table 1, read-out: IC50 GSK-3 α/β
[15] = Table 6, read-out: GSK-3 (IC50 μM)
[16] = Table 6, read-out: CDK-5 (IC50 μM)

Compound	IC50 [1, 8] [µM]	IC50 [3, 9] [µM]	EC50 [4] [µM]	IC50 [5, 10] [µM]	IC50 [5, 12] [µM]	other results
6-Chloroindirubin [5d]	> 100	> 100	0.007	–	–	IC50 [1, 7]: > 100 µM; EC50 [2]: 0.03 µM
O=C1Nc2ccc(F)cc2C1=C1Nc2ccccc2C1=O [5-Fluoroindirubin, reference compound]	–	–	–	0.078	–	–
O=C1Nc2ccc([N+](=O)[O-])cc2C1=C1Nc2ccccc2C1=O [5-Nitroindirubin, reference compound]	–	–	–	0.042	–	–
O=C1Nc2cc(Br)ccc2C1=C1Nc2ccccc2C1=O [5a, 6-Bromoindirubin]	–	53	0.008	–	–	EC50 [2]: 0.02 µM; IC50 [3, 11]: 53 µM
O=C1Nc2cc(F)ccc2/C1=C1/Nc2ccccc2C1=O [5b, 6-Fluoroindirubin]	–	1	–	–	–	–
O=C1Nc2cc(I)ccc2/C1=C1/Nc2ccccc2C1=O [5c, 6-Iodoindirubin]	1.6	5.3	0.017	0.055	0.055	IC50 [1, 7]: 1.6 µM; EC50 [2]: 0.04 µM; IC50 ([5]; Table 4, read-out: IC50 GSK-3): 0.055 µM
O=C1Nc2cc(Cl)c(Cl)cc2/C1=C1/Nc2ccccc2C1=O [5e, 5,6-Dichloroindirubin]	45	60	–	0.03	0.03	–
Cc1cc2c(cc1Br)NC(=O)C2=C1Nc2ccccc2C1=O [5f, 6-Bromo-5-methylindirubin]	30	60	–	0.025	0.025	–
O=C1Nc2cc(Br)c([N+](=O)[O-])cc2C1=C1Nc2ccccc2C1=O [5g, 6-Bromo-5-nitroindirubin]	> 100	> 100	–	0.1	0.1	–
O=C1Nc2ccccc2/C1=C1/Nc2ccccc2C1=O [5h, indirubin]	–	–	0.059	–	–	EC50 [6]: 0.006 µM
C=Cc1ccc2c(c1)NC(=O)/C2=C1\Nc2ccccc2C1=O [5i, 6-Vinylindirubin]	4.2	2.4	–	–	0.24	–
O=C1Nc2cc(F)ccc2C1=C1Nc2ccccc2C1=NO [7b, 6-Fluoroindirubin-3′-oxime]	0.32	0.15	–	0.13	0.13	–
O=C1Nc2cc(I)ccc2C1=C1Nc2ccccc2C1=NO [7c, 6-Iodoindirubin-3′-oxime]	–	0.3	0.44	–	–	EC50 [2]: > 0.1 µM
O=C1Nc2cc(Cl)ccc2C1=C1Nc2ccccc2C1=NO [7d, 6-Chloroindirubin-3′-oxime]	0.65	0.1	0.2	0.02	0.02	IC50 [1, 7]: 0.65 µM; EC50 [2]: 0.004 µM; IC50 ([5]; Table 4, read-out: IC50 GSK-3): 0.02 µM
Cc1cc2c(cc1Br)NC(=O)C2=C1Nc2ccccc2C1=NO [7f, 6-Bromo-5-methylindirubin-3′-oxime]	–	0.13	–	–	–	–
O=C1Nc2cc(Br)c([N+](=O)[O-])cc2C1=C1Nc2ccccc2C1=NO [7g, 6-Bromo-5-nitroindirubin-3′-oxime]	–	0.15	–	–	–	–
C=Cc1ccc2c(c1)NC(=O)C2=C1Nc2ccccc2C1=NO [7i, 6-Vinylindirubin-3′-oxime]	–	0.42	–	–	0.06	–
CC(=O)O/N=C1/C(=C2/C(=O)Nc3cc(I)ccc32)Nc2ccccc21 [8c, 6-Iodoindirubin-3′-acetoxime]	2.2	1.3	–	–	0.013	–

Compound	IC50 [1, 8] [µM]	IC50 [3, 9] [µM]	EC50 [4] [µM]	IC50 [5, 10] [µM]	IC50 [5, 12] [µM]	other results
CC(=O)O/N=C1/C(=C2/C(=O)Nc3cc(Cl)ccc32)Nc2ccccc21 [8d, 6-Chloroindirubin-3′-acetoxime]	30	0.2	–	0.017	0.017	–
CC(=O)ON=C1C(=C2C(=O)Nc3cc(Cl)c(Cl)cc32)Nc2ccccc21 [8e, 5,6Dichloroindirubin-3′-acetoxime]	30	0.1	–	0.004	0.004	–
CC(=O)ON=C1C(=C2C(=O)Nc3cc(Br)c(C)cc32)Nc2ccccc21 [8f, 6-Bromo-5-methylindirubin-3′-acetoxime]	31	30	–	0.007	0.007	–
CC(=O)ON=C1C(=C2C(=O)Nc3cc(Br)c([N+](=O)[O-])cc32)Nc2ccccc21 [8g, 6-Bromo-5-nitroindirubin-3′-acetoxime]	11	31	–	0.006	0.006	–
C=Cc1ccc2c(c1)NC(=O)C2=C1Nc2ccccc2C1=NOC(C)=O [8i, 6-vinylindirubin-3′-acetoxime]	1.6	0.4	–	–	0.065	–
CON=C1C(=C2C(=O)Nc3ccccc32)Nc2ccccc21 [9b, Indirubin-3′-methoxime]	–	0.4	–	–	–	–
O=C1Nc2ccccc2/C1=C1/Nc2cc(Br)ccc2C1=O [12a, 6′-Bromoindirubin]	> 100	> 100	1.2	22	22	IC50 [1, 13]: > 100 µM; IC50 [1, 7]: > 100 µM; EC50 [2]: 0.1 µM; IC50 [3, 11]: > 100 µM; IC50 [5, 14]: 22 µM; IC50 ([5]; Table 4, read-out: IC50 GSK-3): 22 µM
O=C1Nc2cc(Br)ccc2/C1=C1/Nc2cc(Br)ccc2C1=O [12b, 6,6′-Dibromoindirubin]	> 100	> 100	> 10	4.5	4.5	IC50 [1, 13]: ≥ 100 µM; IC50 [1, 7]: > 100 µM; IC50 [3, 11]: > 100 µM; IC50 ([3]; read-out: IC50 with CDK5): > 100 µM; IC50 [5, 14]: 4.5 µM; IC50 ([5]; Table 4, read-out: IC50 GSK-3): 4.5 µM; IC50 ([5]; read-out: IC50 with GSK-3): 4.5 µM
CN1C(=O)C(=C2Nc3ccccc3C2=O)c2ccc(Br)cc21 [12c, 6-Bromo-1-methylindirubin]	> 100	> 100	0.05	–	> 100	IC50 [1, 7]: > 100 µM; EC50 [2]: ≥ 0.1 µM; IC50 [3, 11]: > 100 µM; IC50 [5, 14]: > 100 µM; IC50 ([5]; Table 4, read-out: IC50 GSK-3): > 100 µM
CN1C(=O)/C(=C2\Nc3ccccc3C2=O)c2ccccc21 [12d, 1-Methylindirubin]	> 100	> 100	0.83	–	> 100	IC50 [1, 7]: > 100 µM; EC50 [2]: 0.006 µM; IC50 ([5]; Table 4, read-out: IC50 GSK-3): > 100 µM
O=C1Nc2cccc(Cl)c2/C1=C1/Nc2ccccc2C1=O [compound 6, 4-Chloroindirubin]	10	10	0.31	–	> 100	IC50 [1, 7]: 10 µM; EC50 [2]: > 0.1 µM; IC50 ([5]; Table 4, read-out: IC50 GSK-3): > 100 µM
Cc1ccc2c(c1)/C(=C1/Nc3ccccc3C1=O)C(=O)N2 [compound 15, 5-methyl-indirubin, reference compound]	–	–	0.025	0.062	–	IC50 ([1]; read-out: IC50 CDK1/cycin B): 0.28 µM; EC50 [6]: 0.04 µM; IC50 ([5]; Table 4, read-out: IC50 GSK-3): 0.062 µM
O=C1Nc2ccc(I)cc2/C1=C1/Nc2ccccc2C1=O [compound 18, 5-iodo-indirubin, reference compound]	–	–	–	–	–	IC50 [1, 7]: 0.22 µM; EC50 [6]: 0.03 µM
Nc1ccc2c(c1)C(=C1Nc3ccccc3C1=O)C(=O)N2 [compound 23, 5-Aminoindirubin]	–	–	–	–	–	IC50 [3]: 2.6 µM; IC50 [5, 15]: 1.5 µM
Nc1ccc2c(c1)/C(=C1/Nc3ccccc3C1=NO)C(=O)N2 [compound 24, 5-Amino-3′-oxime indirubin]	–	–	–	–	–	IC50 [3, 16]: 0.47 µM; IC50 [5, 15]: 0.75 µM
Nc1cc2c(cc1Br)NC(=O)C2=C1Nc2ccccc2C1=O [compound 27, 6-Bromo-5-aminoindirubin]	–	–	–	–	–	IC50 [3, 16]: 0.6 µM; IC50 [5, 15]: 0.054 µM
Nc1cc2c(cc1Br)NC(=O)/C2=C1\Nc2ccccc2C1=NO [compound 28, 6-Bromo-5-amino-3′-oxime indirubin]	–	–	–	–	–	IC50 [3, 16]: 0.57 µM; IC50 [5, 15]: 0.056 µM
